The record followed here is patent publication US11319299B2, “Substituted carboxamides as inhibitors of WDR5 protein-protein binding” (PROPELLON THERAPEUTICS INC., priority 2016, dated 2022).

This assay has as its target WDR5 (Homo sapiens (Human), UniProt P61964). The experiment in a line: Surface Plasmon Resonance (SPR) assay, KD and residence time. The class given is binding. The conditions noted are these: surface plasmon resonance (SPR) assay; read-out: WDR5 binding affinity (KD).
For the compound `C[C@@H]1CN(c2cc(F)c(-c3ccc(F)nc3)cc2NC(=O)c2c[nH]c(=O)cc2C(F)(F)F)C[C@H](C)N1C` [Example 257, N-[4-fluoro-5-(6-fluoropyridin-3-yl)-2-[(3R,5S)-3,4,5-trimethylpiperazin-1-yl]phenyl]-6-oxo-4-(trifluoromethyl)-1H-pyridine-3-carboxamide], the equilibrium dissociation constant (Kd) was found to be 1.7 nM. On to `CN(C)C1CCN(c2cc(F)c(-c3cnc(N4CCOCC4)nc3)cc2NC(=O)c2c[nH]c(=O)cc2C(F)(F)F)CC1` [Example 258, N-[2-[4-(dimethylamino)piperidin-1-yl]-4-fluoro-5-(2-morpholin-4-ylpyrimidin-5-yl)phenyl]-6-oxo-4-(trifluoromethyl)-1H-pyridine-3-carboxamide], for which the dissociation constant (Kd) is 66.1 nM.

In the case of `C[C@@H]1CN(c2cc(F)c(-c3ccc(N4CCCC4)nc3)cc2NC(=O)c2c[nH]c(=O)cc2C(F)(F)F)C[C@H](C)N1C` [Example 261, N-[4-fluoro-5-(6-pyrrolidin-1-ylpyridin-3-yl)-2-[(3R,5S)-3,4,5-trimethylpiperazin-1-yl]phenyl]-6-oxo-4-(trifluoromethyl)-1H-pyridine-3-carboxamide], the dissociation constant (Kd) is 1.64 nM. The figure for `COc1cc(Cl)cc(C(=O)Nc2cc(-c3cnc(N4CCOCC4)nc3)c(F)cc2N2C[C@@H](C)N(C)[C@@H](C)C2)c1` [Example 265, 3-chloro-N-[4-fluoro-5-(2-morpholin-4-ylpyrimidin-5-yl)-2-[(3R,5S)-3,4,5-trimethylpiperazin-1-yl]phenyl]-5-methoxybenzamide] is 28.3 nM; for `C[C@@H]1CN(c2cc(F)c(-c3cnc(N4CCOCC4)nc3)cc2NC(=O)c2ccc(F)c(Cl)c2F)C[C@H](C)N1C` [Example 266, 3-chloro-2,4-difluoro-N-[4-fluoro-5-(2-morpholin-4-ylpyrimidin-5-yl)-2-[(3R,5S)-3,4,5-trimethylpiperazin-1-yl]phenyl]benzamide] it is 13.7 nM. Consider `C[C@@H]1CN(c2cc(F)c(C3=CCN(C)CC3)cc2NC(=O)c2c[nH]c(=O)cc2C(F)(F)F)C[C@H](C)N1C` [Example 267, N-[4-fluoro-5-(1-methyl-3,6-dihydro-2H-pyridin-4-yl)-2-[(3R,5S)-3,4,5-trimethylpiperazin-1-yl]phenyl]-6-oxo-4-(trifluoromethyl)-1H-pyridine-3-carboxamide], for which the dissociation constant Kd stood at 10.7 nM. The result for `Cc1cc(C#N)ncc1-c1cc(NC(=O)c2c[nH]c(=O)cc2C(F)(F)F)c(N2C[C@@H](C)N(C)[C@@H](C)C2)cc1F` [Example 269, N-[5-(6-cyano-4-methylpyridin-3-yl)-4-fluoro-2-[(3R,5S)-3,4,5-trimethylpiperazin-1-yl]phenyl]-6-oxo-4-(trifluoromethyl)-1H-pyridine-3-carboxamide] reads 8.74 nM; that for `C[C@@H]1CN(c2cc(F)c(C3=CCN(c4ccccn4)CC3)cc2NC(=O)c2c[nH]c(=O)cc2C(F)(F)F)C[C@H](C)N1C` [Example 270, N-[4-fluoro-5-(1-pyridin-2-yl-3,6-dihydro-2H-pyridin-4-yl)-2-[(3R,5S)-3,4,5-trimethylpiperazin-1-yl]phenyl]-6-oxo-4-(trifluoromethyl)-1H-pyridine-3-carboxamide], 0.938 nM; that for `Cc1cnc(N2CC=C(c3cc(NC(=O)c4c[nH]c(=O)cc4C(F)(F)F)c(N4C[C@@H](C)N(C)[C@@H](C)C4)cc3F)CC2)nc1` [Example 271, N-[4-fluoro-5-[1-(5-methylpyrimidin-2-yl)-3,6-dihydro-2H-pyridin-4-yl]-2-[(3R,5S)-3,4,5-trimethylpiperazin-1-yl]phenyl]-6-oxo-4-(trifluoromethyl)-1H-pyridine-3-carboxamide], 0.499 nM. The figure for `C[C@@H]1CN(c2ccc(-c3cc(NC(=O)c4c[nH]c(=O)cc4C(F)(F)F)c(N4C[C@@H](C)N(C)[C@@H](C)C4)cc3F)cn2)C[C@H](C)O1` [Example 272, N-[4-fluoro-5-[6-[(2R,6S)-2,6-dimethylmorpholin-4-yl]pyridin-3-yl]-2-[(3S,5R)-3,4,5-trimethylpiperazin-1-yl]phenyl]-6-oxo-4-(trifluoromethyl)-1H-pyridine-3-carboxamide] is 0.532 nM; for `C[C@@H]1CN(c2cc(F)c(C3=CCN(c4ncc(Cl)cn4)CC3)cc2NC(=O)c2c[nH]c(=O)cc2C(F)(F)F)C[C@H](C)N1C` [Example 275, N-[5-[1-(5-chloropyrimidin-2-yl)-3,6-dihydro-2H-pyridin-4-yl]-4-fluoro-2-[(3R,5S)-3,4,5-trimethylpiperazin-1-yl]phenyl]-6-oxo-4-(trifluoromethyl)-1H-pyridine-3-carboxamide] it is 1.54 nM; for `CCOC(=O)c1ccnc(N2CC=C(c3cc(NC(=O)c4c[nH]c(=O)cc4C(F)(F)F)c(N4C[C@@H](C)N(C)[C@@H](C)C4)cc3F)CC2)n1` [Example 276, ethyl 2-[4-[2-fluoro-5-[[6-oxo-4-(trifluoromethyl)-1H-pyridine-3-carbonyl]amino]-4-[(3R,5S)-3,4,5-trimethylpiperazin-1-yl]phenyl]-3,6-dihydro-2H-pyridin-1-yl]pyrimidine-4-carboxylate] it is 1.67 nM. The result for `CNC1CCN(c2cc(F)c(-c3cnc(N4CCOCC4)nc3)cc2NC(=O)c2c[nH]c(=O)cc2C(F)(F)F)C1` (stereo not drawn) [Example 277, N-[4-fluoro-2-[3-(methylamino)pyrrolidin-1-yl]-5-(2-morpholin-4-ylpyrimidin-5-yl)phenyl]-6-oxo-4-(trifluoromethyl)-1H-pyridine-3-carboxamide] reads 14.9 nM; that for `C[C@@H]1CN(c2cc(F)c(-c3cnc(N4CCOCC4)nc3)cc2NC(=O)c2cc(O)cc(C(F)(F)F)c2)C[C@H](C)N1C` [Example 280, N-[4-fluoro-5-(2-morpholin-4-ylpyrimidin-5-yl)-2-[(3R,5S)-3,4,5-trimethylpiperazin-1-yl]phenyl]-3-hydroxy-5-(trifluoromethyl)benzamide], 3.12 nM; that for `C[C@@H]1CN(c2cc(F)c(-c3cnc(N4CCOCC4)nc3)cc2NC(=O)c2cccc(O)c2)C[C@H](C)N1C` [Example 281, N-[4-fluoro-5-(2-morpholin-4-ylpyrimidin-5-yl)-2-[(3R,5S)-3,4,5-trimethylpiperazin-1-yl]phenyl]-3-hydroxybenzamide], 29.1 nM. Regarding `C[C@@H]1CN(c2cc(F)c(-c3cnc(N4CCOCC4)nc3)cc2NC(=O)c2c(O)cnc3ccccc23)C[C@H](C)N1C` [Example 282, N-[4-fluoro-5-(2-morpholin-4-ylpyrimidin-5-yl)-2-[(3R,5S)-3,4,5-trimethylpiperazin-1-yl]phenyl]-3-hydroxyquinoline-4-carboxamide], the dissociation constant Kd turned out to be 1.98 nM. The figure for `CN(C)[C@@H]1CCN(c2cc(F)c(-c3cnc(N4CCOCC4)nc3)cc2NC(=O)c2cn(C)nc2C(F)(F)F)C1` [Example 283, N-[4-fluoro-5-(2-morpholin-4-ylpyrimidin-5-yl)-2-[(3R)-3-(dimethylamino)pyrrolidin-1-yl]phenyl]-1-methyl-3-(trifluoromethyl)pyrazole-4-carboxamide] is 14.8 nM; for `C[C@@H]1CN(c2cc(F)c(C3=CCN(C(=O)N(C)C)CC3)cc2NC(=O)c2c[nH]c(=O)cc2C(F)(F)F)C[C@H](C)N1C` [Example 285, N-[5-[1-(dimethylcarbamoyl)-3,6-dihydro-2H-pyridin-4-yl]-4-fluoro-2-[(3R,5S)-3,4,5-trimethylpiperazin-1-yl]phenyl]-6-oxo-4-(trifluoromethyl)-1H-pyridine-3-carboxamide] it is 1.01 nM; for `C[C@@H]1CN(c2cc(F)c(C3=CCN(C(=O)N4CCCC4)CC3)cc2NC(=O)c2c[nH]c(=O)cc2C(F)(F)F)C[C@H](C)N1C` [Example 286, N-[4-fluoro-5-[1-(pyrrolidine-1-carbonyl)-3,6-dihydro-2H-pyridin-4-yl]-2-[(3R,5S)-3,4,5-trimethylpiperazin-1-yl]phenyl]-6-oxo-4-(trifluoromethyl)-1H-pyridine-3-carboxamide] it is 1.18 nM. The figure for `C[C@@H]1CN(c2cc(F)c(C3=CCN(C(=O)N4CCN(C)CC4)CC3)cc2NC(=O)c2c[nH]c(=O)cc2C(F)(F)F)C[C@H](C)N1C` [Example 287, N-[4-fluoro-5-[1-(4-methylpiperazine-1-carbonyl)-3,6-dihydro-2H-pyridin-4-yl]-2-[(3R,5S)-3,4,5-trimethylpiperazin-1-yl]phenyl]-6-oxo-4-(trifluoromethyl)-1H-pyridine-3-carboxamide] is 1.39 nM. The figure for `C[C@@H]1CN(c2cc(F)c(C3=CCN(C(=O)Oc4ccccc4)CC3)cc2NC(=O)c2c[nH]c(=O)cc2C(F)(F)F)C[C@H](C)N1C` [Example 288, phenyl 4-[2-fluoro-5-[[6-oxo-4-(trifluoromethyl)-1H-pyridine-3-carbonyl]amino]-4-[(3R,5S)-3,4,5-trimethylpiperazin-1-yl]phenyl]-3,6-dihydro-2H-pyridine-1-carboxylate] is 1.11 nM; for `C[C@@H]1CC(N2CC=C(c3cc(NC(=O)c4c[nH]c(=O)cc4C(F)(F)F)c(N4C[C@@H](C)N(C)[C@@H](C)C4)cc3F)CC2)C[C@H](C)O1` (stereo partly drawn) [Example 289, N-[4-fluoro-5-[1-[(2R,6S)-2,6-dimethyloxan-4-yl]-3,6-dihydro-2H-pyridin-4-yl]-2-[(3S,5R)-3,4,5-trimethylpiperazin-1-yl]phenyl]-6-oxo-4-(trifluoromethyl)-1H-pyridine-3-carboxamide] it is 3.74 nM; for `C[C@@H]1CN(c2cc(F)c(-c3cnc(N4CCOCC4)nc3)cc2NC(=O)c2ccc(O)cc2C(F)(F)F)C[C@H](C)N1C` [Example 290, N-[4-fluoro-5-(2-morpholin-4-ylpyrimidin-5-yl)-2-[(3R,5S)-3,4,5-trimethylpiperazin-1-yl]phenyl]-4-hydroxy-2-(trifluoromethyl)benzamide] it is 8.9 nM. Consider `C[C@@H]1CN(c2cc(F)c(-c3cnc(N4CCOCC4)nc3)cc2NC(=O)c2cc(O)cc(F)c2F)C[C@H](C)N1C` [Example 291, 2,3-difluoro-N-[4-fluoro-5-(2-morpholin-4-ylpyrimidin-5-yl)-2-[(3R,5S)-3,4,5-trimethylpiperazin-1-yl]phenyl]-5-hydroxybenzamide], for which the equilibrium dissociation constant (Kd) is 4.21 nM.
